Reference: ChEMBL document CHEMBL3044925, “Synthesis of piperazino and morpholino derivatives of aryloxypropane with potential analgesic and possible antimigraine activities” (Med Chem Res, 2011)

Key:
Mus musculus [1] = assay: Neurotoxicity against Mus musculus MFI (mouse) assessed as skeletal muscle incoordination at 40 mg/kg, ip; assay type: toxicity, organism-based, Muscle tissue; design: dose 40 mg/kg, route intraperitoneal; settings: in vivo
Mus musculus [2] = assay: Neurotoxicity against Mus musculus MFI (mouse) assessed as eye protrusion at 40 mg/kg, ip; assay type: toxicity, organism-based; design: dose 40 mg/kg, route intraperitoneal; settings: in vivo
Mus musculus [3] = assay: Neurotoxicity against Mus musculus MFI (mouse) assessed as hair erection at 75 mg/kg, ip; assay type: toxicity, organism-based; design: dose 75 mg/kg, route intraperitoneal; settings: in vivo
Mus musculus [4] = assay: Neurotoxicity against Mus musculus MFI (mouse) assessed as tremors at 40 mg/kg, ip; assay type: toxicity, organism-based; design: dose 40 mg/kg, route intraperitoneal; settings: in vivo
Mus musculus [5] = assay: Neurotoxicity against Mus musculus MFI (mouse) assessed as muscle twitching at 40 mg/kg, ip; assay type: toxicity, organism-based, Muscle tissue; design: dose 40 mg/kg, route intraperitoneal; settings: in vivo
Mus musculus [6] = assay: […] activity in Mus musculus MFI (mouse) assessed as inhibition of PBQ-induced writhing at 110 mg/kg, ip administered 1.5 hr prior to PBQ-challenge measured after 10 min relative to aspirin; assay type: functional; settings: route intraperitoneal
Mus musculus [7] = assay: Neurotoxicity against Mus musculus MFI (mouse) assessed as tail erection at 75 mg/kg, ip; assay type: toxicity, organism-based; design: dose 75 mg/kg, route intraperitoneal; settings: in vivo
Mus musculus [8] = assay: Neurotoxicity against Mus musculus MFI (mouse) assessed as skeletal muscle incoordination at 75 mg/kg, ip; assay type: toxicity, organism-based, Muscle tissue; design: dose 75 mg/kg, route intraperitoneal; settings: in vivo
Mus musculus [9] = assay: Neurotoxicity against Mus musculus MFI (mouse) assessed as muscle twitching at 75 mg/kg, ip; assay type: toxicity, organism-based, Muscle tissue; design: dose 75 mg/kg, route intraperitoneal; settings: in vivo
Mus musculus [10] = assay: Neurotoxicity against Mus musculus MFI (mouse) assessed as tremors at 110 mg/kg, ip; assay type: toxicity, organism-based; design: dose 110 mg/kg, route intraperitoneal; settings: in vivo
Mus musculus [11] = assay: Neurotoxicity against Mus musculus MFI (mouse) assessed as excitation at 110 mg/kg, ip; assay type: toxicity, organism-based; design: dose 110 mg/kg, route intraperitoneal; settings: in vivo
Mus musculus [12] = assay: Neurotoxicity against Mus musculus MFI (mouse) assessed as irritability at 75 mg/kg, ip; assay type: toxicity, organism-based; design: dose 75 mg/kg, route intraperitoneal; settings: in vivo
Mus musculus [13] = assay: […] activity in Mus musculus MFI (mouse) assessed as inhibition of PBQ-induced writhing at 75 mg/kg, ip administered 1.5 hr prior to PBQ-challenge measured after 10 min relative to aspirin; assay type: functional; settings: route intraperitoneal
Mus musculus [14] = assay: Neurotoxicity against Mus musculus MFI (mouse) assessed as hair erection at 110 mg/kg, ip; assay type: toxicity, organism-based; design: dose 110 mg/kg, route intraperitoneal; settings: in vivo
Mus musculus [15] = assay: Neurotoxicity against Mus musculus MFI (mouse) assessed as tremors at 75 mg/kg, ip; assay type: toxicity, organism-based; design: dose 75 mg/kg, route intraperitoneal; settings: in vivo
Mus musculus [16] = assay: Neurotoxicity against Mus musculus MFI (mouse) assessed as muscle twitching at 110 mg/kg, ip; assay type: toxicity, organism-based, Muscle tissue; design: dose 110 mg/kg, route intraperitoneal; settings: in vivo
Mus musculus [17] = assay: […] activity in ip dosed Mus musculus MFI (mouse) assessed as inhibition of PBQ-induced writhing administered 1.5 hr prior to PBQ-challenge measured after 10 min; assay type: functional; settings: read-out: MED
Mus musculus [18] = assay: Neurotoxicity against Mus musculus MFI (mouse) assessed as epilepsy at 110 mg/kg, ip; assay type: toxicity, organism-based; design: dose 110 mg/kg, route intraperitoneal; settings: in vivo
Mus musculus [19] = assay: Neurotoxicity in ip dosed Mus musculus MFI (mouse); assay type: toxicity, organism-based; settings: in vivo
Mus musculus [20] = assay: Neurotoxicity against Mus musculus MFI (mouse) assessed as eye protrusion at 110 mg/kg, ip; assay type: toxicity, organism-based; design: dose 110 mg/kg, route intraperitoneal; settings: in vivo
Mus musculus [21] = assay: Neurotoxicity against Mus musculus MFI (mouse) assessed as excitation at 75 mg/kg, ip; assay type: toxicity, organism-based; design: dose 75 mg/kg, route intraperitoneal; settings: in vivo
Mus musculus [22] = assay: Neurotoxicity against Mus musculus MFI (mouse) assessed as irritability at 40 mg/kg, ip; assay type: toxicity, organism-based; design: dose 40 mg/kg, route intraperitoneal; settings: in vivo
Mus musculus [23] = assay: Neurotoxicity against Mus musculus MFI (mouse) assessed as skeletal muscle incoordination at 110 mg/kg, ip; assay type: toxicity, organism-based, Muscle tissue; design: dose 110 mg/kg, route intraperitoneal; settings: in vivo
Mus musculus [24] = assay: Neurotoxicity against Mus musculus MFI (mouse) assessed as epilepsy at 40 mg/kg, ip; assay type: toxicity, organism-based; design: dose 40 mg/kg, route intraperitoneal; settings: in vivo
Mus musculus [25] = assay: Neurotoxicity against Mus musculus MFI (mouse) assessed as irritability at 110 mg/kg, ip; assay type: toxicity, organism-based; design: dose 110 mg/kg, route intraperitoneal; settings: in vivo
Mus musculus [26] = assay: Neurotoxicity against Mus musculus MFI (mouse) assessed as eye protrusion at 75 mg/kg, ip; assay type: toxicity, organism-based; design: dose 75 mg/kg, route intraperitoneal; settings: in vivo
Mus musculus [27] = assay: Neurotoxicity against Mus musculus MFI (mouse) assessed as hair erection at 40 mg/kg, ip; assay type: toxicity, organism-based; design: dose 40 mg/kg, route intraperitoneal; settings: in vivo
Mus musculus [28] = assay: Neurotoxicity against Mus musculus MFI (mouse) assessed as excitation at 40 mg/kg, ip; assay type: toxicity, organism-based; design: dose 40 mg/kg, route intraperitoneal; settings: in vivo
Mus musculus [29] = assay: Neurotoxicity against Mus musculus MFI (mouse) assessed as effect on respiration at 40 mg/kg, ip; assay type: toxicity, organism-based; design: dose 40 mg/kg, route intraperitoneal; settings: in vivo
Mus musculus [30] = assay: Neurotoxicity against Mus musculus MFI (mouse) assessed as effect on respiration at 75 mg/kg, ip; assay type: toxicity, organism-based; design: dose 75 mg/kg, route intraperitoneal; settings: in vivo
Mus musculus [31] = assay: Neurotoxicity against Mus musculus MFI (mouse) assessed as effect on respiration at 110 mg/kg, ip; assay type: toxicity, organism-based; design: dose 110 mg/kg, route intraperitoneal; settings: in vivo
Mus musculus [32] = assay: Neurotoxicity against Mus musculus MFI (mouse) assessed as tail erection at 110 mg/kg, ip; assay type: toxicity, organism-based; design: dose 110 mg/kg, route intraperitoneal; settings: in vivo
Mus musculus [33] = assay: Neurotoxicity against Mus musculus MFI (mouse) assessed as epilepsy at 75 mg/kg, ip; assay type: toxicity, organism-based; design: dose 75 mg/kg, route intraperitoneal; settings: in vivo
Mus musculus [34] = assay: […] activity in Mus musculus MFI (mouse) assessed as inhibition of PBQ-induced writhing at 40 mg/kg, ip administered 1.5 hr prior to PBQ-challenge measured after 10 min relative to aspirin; assay type: functional; settings: route intraperitoneal
Mus musculus [35] = assay: Neurotoxicity against Mus musculus MFI (mouse) assessed as tail erection at 40 mg/kg, ip; assay type: toxicity, organism-based; design: dose 40 mg/kg, route intraperitoneal; settings: in vivo

SMILES: CC(CN1CCN(C)CC1)Oc1c(Br)cccc1Br.O=C(O)C(=O)O (racemic)
- Activity (Mus musculus [1]): Toxic
- Activity (Mus musculus [2]): Toxic
- Activity (Mus musculus [3]): Toxic
- Activity (Mus musculus [4]): Toxic
- Activity (Mus musculus [5]): Toxic
- inhibition in vivo at 110 mg/kg (Mus musculus [6]): 100%
- Activity (Mus musculus [7]): Toxic
- Activity (Mus musculus [8]): Toxic
- Activity (Mus musculus [9]): Toxic
- Activity (Mus musculus [10]): Toxic
- Activity (Mus musculus [11]): Toxic
- Activity (Mus musculus [12]): Toxic
- inhibition in vivo at 75 mg/kg (Mus musculus [13]): 37.5%
- Activity (Mus musculus [14]): Toxic
- Activity (Mus musculus [15]): Toxic
- Activity (Mus musculus [16]): Toxic
- minimal effective dose (Mus musculus [17]): 40 mg/kg
- Activity (Mus musculus [18]): Toxic
- MTC (Mus musculus [19]): 75 mg/kg
- Activity (Mus musculus [20]): Toxic
- Activity (Mus musculus [21]): Toxic
- Activity (Mus musculus [22]): Toxic
- Activity (Mus musculus [23]): Toxic
- Activity (Mus musculus [24]): Toxic
- Activity (Mus musculus [25]): Toxic
- Activity (Mus musculus [26]): Toxic
- Activity (Mus musculus [27]): Toxic
- Activity (Mus musculus [28]): Toxic
- Activity (Mus musculus [29]): Toxic
- Activity (Mus musculus [30]): Toxic
- Activity (Mus musculus [31]): Toxic
- Activity (Mus musculus [32]): Toxic
- Activity (Mus musculus [33]): Toxic
- inhibition in vivo at 40 mg/kg (Mus musculus [34]): 12.5%
- Activity (Mus musculus [35]): Toxic
